What all share (type): in vivo, human
Data set [1] deals with osteoarthritis with capsulitis. Nature of the data set: Clinical treatment of a patient, Example 1. As to conditions: for benefit of earlier therapeutic treatments: before Accutane, Asprin two to five 325 mg pills per day. On the procedure: (§1) Example 1 to 3 illustrate clinical effectiveness of the above described treatment method. An initial treatment and a maintenance treatment as described above were prescribed to the patients. It is noted that the patients described in the Examples were in the average weight range, therefore, an average dosage of 40 mg was used. It is noted that all patients were told to totally avoid sun exposure during the initial treatment dosage period and for the first one or two weeks after instituting the maintenance dosage because of sun sensitivity with the use of Accutane®.
A patient in generally good health had the onset of joint complaints in 1988 affecting only the hands. The main location was in the distal interphalangeal joint (IP joint) which had been fractured in 1980. Symptoms were puffiness and swelling with increasing tenderness over the years. The tenderness had become so pronounced that in 1994 they stopped shaking hands because of the pain. In addition they had progressive difficulty making a fist because of swelling and tightness of the fingers.
X-ray examination found thining of joint space and capsular swelling of the interphalangeal joints. Laboratory examination results were normal. The patient was diagnosed with osteoarthritis with capsulitis.
In April 1997 the patient started taking Accutane® (13-cis retanoid acid, Hoffmann-La Roche Inc., Nutley, N.J.) for another medical condition in an initial dosage of about 40 mg Accutane® daily for twenty one days, followed by a maintenance dosage of about 40 mg Accutane® twice a week (on Monday and Friday).

The subject of data set [2] is inflammatory osteoarthritis and rheumatism. Nature of the data set: Clinical treatment of a patient, Example 2. As to conditions: for effect of past treatment: person, before Accutane. On the procedure: as §1
A person retired Navy Chief Warrant Officer was diagnosed with inflammatory osteoarthritis and rheumatism. The symptoms included joint pains for six to ten years. Initially in 1992 the join pains affected the right hip, and the patient suffered from the hip pain while working. In 1994, the patient developed neck and left shoulder pain. […] Furthermore, the shoulder was diagnosed as a rotator cuff injury. In 1997, the patient's hands became tender when playing golf. The hand condition progressed to puffiness of fingers and a gripping problem with difficulty closing hands. The patient's blood chemistry was normal.
The patient was placed on the 13-cis retanoic acid treatment on May 1, 2002 with an initial dosage about 40 mg Accutane® daily for fourteen days, followed by a maintenance dosage of about 40 mg Accutane® twice a week. […] As a result of such a significant improvement of the physical condition, the patient's golf handicap dropped from eleven (11) to nine (9).

The subject of data set [3] is musculoskeletal and connective tissue inflammations. The data set is described as follows: Treatment of patients with initial and maintenance dosage, general findings. As to conditions: long term use of the low maintenance dosage. On the procedure: Preferably, the treatment method further includes two treatment periods: an initial treatment, and a maintenance treatment. First, in the initial treatment, a patient administrates an initial dosage of 13-cis-retinoic acid for a period from about ten days to about five months. Thereafter, the patient administrates a lower maintenance dosage of 13-cis-retinoic acid.
The dosage is determined based on the patient's body weight. The initial dosage is in a range from about 10 mg to 80 mg 13-cis-retinoic acid daily (about 0.14 mg to about 1.1 mg per kilogram (kg) of body weight). For average men having a body weight about 160 lbs (72.6 kg), the average initial dosage is about 40 mg daily. The maintenance dosage is in a range from about 10 mg to 80 mg 13-cis-retinoic acid every three to seven days (about 0.14 mg to about 1.1 mg per kilogram (kg) of body weight). The average maintenance dosage for average men having a body weight about 160 lbs is about 40 mg every three to seven days. The dosages should be adjusted accordingly for children or those who weigh substantially less than or above the average body weight.
Furthermore, no serious adverse side effects were observed by using the described treatment. […]

Data set [4] has as its system osteoarthritis. Nature of the data set: Clinical treatment of a patient, Example 3. On the procedure: as §1
A farmer, had more than a ten year history of hand pain involving fingers, and associated with swelling and tenderness of interphalangeal joints. The hand condition made their work and playing golf difficult. The patient was diagnosed with osteoarthritis.
The patient was placed on 13-cis retanoic acid treatment in April of 2001, with an initial dosage of about 40 mg Accutane® daily for twenty one days, followed by a maintenance dosage of about 40 mg Accutane® twice a week. […] The improvements were maintained during a subsequent six month continuation of the maintenance dosage.

[5] abbreviates: about 40 mg daily 21 days, then 40 mg twice a week.
Setting [6] is: 40 mg daily 14 days, then 40 mg twice a week.

Consider `CC(C)Cc1ccc(C(C)C(=O)O)cc1` (stereo not drawn) [Motrin, ibuprofen], for which the “benefit of earlier therapeutic treatments” value (from here on “benefit”) in data set [1] is “minimal or no benefit”. In addition, the “effect of past treatment” value in data set [2] is “minimal effect”.
Turning to `CC(=O)Oc1ccccc1C(=O)O` [Aspirin], the “benefit” value in data set [1] was “minimal or no benefit”. In data set [2], the “effect of past treatment” value was “minimal effect”.
For `CC1=C(/C=C/C(C)=C/C=C/C(C)=C\C(=O)O)C(C)(C)CCC1` [Accutane, 13-cis-retinoic acid], in data set [1] (setting [5]), the cervical spine tenderness entry is recorded as “slow improvement”; the “fibro calcified peri-spinous nodules of cervical spine” value is listed as “dissolution”; the “range of motion (ROM), cervical spine” value is on record as “increased range of motion”. Further, the “stiff and painful shoulder condition (old rotator cuff injury, right shoulder)” value in data set [1] (about 40 mg daily 21 days, then 40 mg twice a week, over the ensuing months) is recorded as “improvement”. Besides, in data set [1] (continued maintenance dosage), the “blood-chemistries and hematology test results” value is “remained normal”; the “overall physical well being / musculoskeletal infirmities” value is listed as “no longer has any musculoskeletal infirmities”. For the same compound, in data set [1] (initial treatment about 40 mg daily), the “right shoulder pain during the initial treatment” value is on record as “increased right shoulder pain was noted, which then abated”. Also, the physical side effects entry in data set [1] (long-term maintenance dosage 40 mg twice a week) was “No physical side effects have been noted other than dry lips and skin in the early stages”. Also, the hand condition result in data set [1] (person, about 40 mg daily for 21 days, then about 40 mg twice a week, over the ensuing months) is given as “gradual, but steady improvement”. In data set [2] (setting [6]), the “hand puffiness and grip problems” value is listed as “no longer exist”; the side effects result is reported as “minimal side effects”. In addition, the shoulder pain entry in data set [2] (about 40 mg daily 14 days, then 40 mg twice a week, after total of seven weeks, physical therapy continued) was “completely abated”. In data set [2] (after total of seven weeks of treatment), the “range of movement (shoulder)” value is listed as “returned to normal”. In addition, in data set [2] (as of August, 2002 (start May 1, 2002)), the “neck and hip pains” value is “almost completely abated”. Further, in data set [2] (if they play golf three to four days in a row), the hand tenderness entry is “still exhibit a tinge of tenderness”. In addition, the “long term effect on musculoskeletal and connective tissue inflammations” value in data set [3] is on record as “provides a long term control”. For the same compound, in data set [4] (after ten weeks treatment), the range of movement entry is listed as “improvement”; the “swelling and tenderness of the fingers” value is recorded as “decreased”. Further, the “pre-therapy and follow-up blood tests” value in data set [4] (human, in vivo) is “normal”. In data set [4] (person, about 40 mg daily 21 days, then 40 mg twice a week, after ten weeks treatment), the symptoms result is “began to improve”. In addition, the persistence of improvements entry in data set [4] (subsequent six month continuation of the maintenance dosage) was “maintained”. Besides, the side effects result in data set [4] (subsided after taking the maintenance dosage) was “no side effects other than dry lips and skin”.
In the case of `COc1ccc2cc([C@H](C)C(=O)O)ccc2c1` [Naprosyn, naproxen], the “benefit” value in data set [1] is on record as “minimal or no benefit”.

For the origin of these results see US7071228B2, “Method of treating musculoskeletal and connective tissue inflammations” (priority 2002, dated 2006).
